# Reference: US20170073445A1, “PHOTOPOLYMERIZABLE COMPOSITION, PHOTOPOLYMERIZABLE INK, COMPOSITION CONTAINER, IMAGE OR CURED PRODUCT FORMING METHOD, IMAGE OR CURED PRODUCT FORMING DEVICE, AND IMAGE OF CURED PRODUCT” (priority 2014, published 2017)
# Key:
# [1] = in vivo; cited from earlier work
# female mice = assay: Skin sensitization test, local lymph node assay (LLNA), SI value; format: in vivo; details: test substance 50.0 w/v % in acetone:olive oil 4:1, applied to both auricles once a day for three days
# Text: (1) A compound having a Stimulation Index (SI value) of less than 3, where the Stimulation Index indicates the level of sensitization as measured by a skin sensitization test based on the LLNA (Local Lymph Node Assay).
# Regarding the above (1), the compound having a SI value of less than 3 is considered as being negative for skin sensitization as described in literatures, for example, “Functional Material” (Kino Zairyou) September, 2005, Vol. 25, No. 9, p. 55. The lower Si value means lower skin sensitization. In the present invention, therefore, a photopolymerizable monomer having lower SI value is preferably used. The SI value is preferably less than 3, more preferably 2 or less, and even more preferably 1.6 or less.
# According to the skin sensitization test of local lymph node assay (LLNA), the SI value was measured in the following manner. […]
# Based on the body weights measured 2 days before the initiation of sensitization, they were categorized into 2 groups (4 mice/group) by the body weight stratified random sampling method so that the body weight of each individual was within plus or minus 20%. […]
# About 24 hours after the administration of BrdU, the used animals were allowed to undergo euthanasia, and their auricular lymph nodes were sampled. […] Also, the average of the weights of the auricular lymph nodes and the standard error thereof were calculated for each group. […]
# [2] = Viscosity by cone-plate rotor viscometer (25° C. or 60° C.); format: physicochemical; details: monomer per se
# Method: Note that, a viscosity of the low viscous monofunctional monomer per se is preferably 3 mPa·s or less at 25° C., more preferably about 1 mPa·s or less at 25° C. The viscosity can be measured by means of a cone-plate rotor viscometer, VISCOMETER TV-22, manufactured by Toki Sangyo Co., Ltd., using a corn rotor (1° 34′×R24) at the rotational speed of 50 rpm, with setting the temperature of constant-temperature circulating water to 25° C.
# The viscosity is measured by means of a cone-plate rotor viscometer, VISCOMETER TV-22, manufactured by Toki Sangyo Co., Ltd., using a corn rotor (1° 34′×R24) at the rotational speed of 50 rpm, with setting the temperature of constant-temperature circulating water to 25° C. or 60° C. As for the adjustment of the temperature of the circulating water, VISCOMATE VM-150III is used. […]
# (A): t-butylmethacrylate, “Acryester TB” manufactured by MITSUBISHI RAYON CO., LTD. (negative), evaluated with the literature (test method: maximization method, viscosity at 25° C.: 0.9 mPa·s). The viscosity was measured by means of a cone-plate rotor viscometer, VISCOMETER TV-22, manufactured by Toki Sangyo Co., Ltd., using a corn rotor (1° 34′×R24) at the rotational speed of 50 rpm, with setting the temperature of constant-temperature circulating water to 25° C.
viscosity at 25° C. [2] [mPa·s],Molecule,SI value (Stimulation Index) in the LLNA test (female mice),also measured
,O=C(c1ccccc1)C1(O)CCCCC1 [1-hydroxy-cyclohexylphenylketone],,"Skin sensitization, evaluated with MSDS [1]: no"
,C=C(C)C(=O)OCC(CO)OC(=O)C(=C)C (centres unmarked) [glycerol dimethacrylate],1.2,
1,C=C(C)C(=O)OCCCCC [n-pentyl methacrylate],,
0.9,C=C(C)C(=O)OC(C)(C)C [t-butylmethacrylate],,
,tricyclodecane dimethanol dimethacrylate,1.3,
